These results are taken from patent US11286249B2, “Pyrrolidine compounds” (Eli Lilly and Company, priority 2019, dated 2022).

The structures appear in SMILES notation. Counter-ions that a name gives are not always drawn.

In general, IC50 refers to the midpoint of a concentration-inhibition curve. The low end stands for inhibition by little substance, the high end for a need for much substance. By ED50 is commonly meant the dose that gives a 50% effect, or the effect in half of the subjects. High values mean weaker potency, low ones greater potency.

In test [1] the target is assembly of Lp(a) from Apo(a) and the LDL particle (Homo sapiens, UniProt P08519). The test is described as follows: In vitro Lp(a) assembly assay (cell-free, HepG2 and HEK293 conditioned media, sandwich ELISA). Conditions: inhibition of Lp(a) formation, 37° C. for 2 hrs; geometric mean ± SEM (n). It is filed as biochemical. The protocol: The ability of compounds to inhibit the formation of Lp(a) particles in vitro is assessed by a cell-free assembly assay. Conditioned media (DMEM supplemented with 10% FBS, 20 mM HEPES, and 1× penicillin/streptomycin) is collected from confluent wild-type HepG2 cells (a source of endogenously expressed ApoB) and from a HEK293 stable cell line expressing human Apo(a) protein containing 17 Kringle repeats (selected on 1 mg/ml geneticin) after 24 hours of culture at 37° C. and 5% CO2. An in vitro assembly assay is conducted by combining equal parts of HepG2 and HEK293 conditioned media with the test compounds added in dilution series (final concentration 0.01˜100 nM). The reaction is incubated at 37° C. for 2 hrs and then stopped with the addition of 6-aminocaproic acid (EACA) to a final concentration of 150 mM. Lp(a) is detected using a sandwich ELISA with an anti-Lp(a) capture antibody and an HRP-conjugated anti-ApoB detection antibody. The ELISA is developed using TMB, stopped using 1 N sulfuric acid, and the signal is read at 450 nm on a Molecular Devices plate reader.
In general terms: ELISA stands for enzyme-linked immunosorbent assay.

A further test deals with plasma Lp(a). Put plainly: In vivo Lp(a) inhibition in mice. Conditions: for Lp(a) inhibition (%) / Lp(a) inhibition (% at 30 mpk): mean ± SEM; for Lp(a) inhibition (% at 30 mpk): 30 mpk oral twice a day; for Lp(a) inhibition (% at 30 mpk) / ED50: day 3 at 8 h post morning oral dose; for ED50: effective dose for 50% Lp(a) inhibition, oral, twice a day, ED50 ± standard error. On the procedure: The ability of compounds to reduce steady-state Lp(a) level in vivo is assessed in a transgenic mouse model capable of producing humanized Lp(a) particles. In vivo effects of Lp(a) disruptor compounds are tested in 7 to 17-month-old female double transgenic mice expressing human apoB-100 and human apo(a) containing 17 Kringle repeats: B6.SJL-Tg(APOB)1102Sgy Tg(Alb-LPA)32Arte. Mice are housed with standard light cycle (12 hrs. light/12 hrs. dark), at RT 72±8° F. and relative humidity of 30˜70%, and with free access to water and normal chow diet (Harlan Tecklad diet 2014). Mice are randomized to treatment groups (n=5/group) 3 to 5 days before the study by body weight and baseline plasma Lp(a) concentration using BRAT (Block Randomized Allocation Tool) for the study. Mice are orally dosed (or subcutaneously where noted) with vehicle (oral dose vehicle: 10 mL/kg, 1% HEC, 0.25% Tween80, 0.01% Antifoam; subcutaneous dose vehicle: 5 mL/kg saline) or test compound at various dose levels twice a day (6:30 am and […]) for 5 days. Blood is collected in heparin-coated capillary tubes via tail bleed. Twenty μL of each blood sample is transferred to a DBS card (Whatman Cat #: WB12 9243) for drug exposure analysis. The remaining blood samples are centrifuged to separate plasma. Lp(a) concentration in plasma is measured using a sandwich ELISA as described for the in vitro Lp(a) assembly assay. The % inhibition for each dose group is determined with the mean the Lp(a) level of the vehicle control group set to 0% inhibition. […] ED50 (effective dose for 50% Lp(a) inhibition) calculations as determined by Threshold Minimum Effective Dose analysis.

In another test the target is human Apo(a) protein (Homo sapiens, UniProt P08519). The test is described as follows: In vitro Apo(a) binding assay (competitive SPA radioligand binding). Conditions: human Apo(a) with 17 Kringle repeats; geometric mean ± SEM (n). On the procedure:
The in vitro binding affinity of compounds to the intended target human Apo(a) protein is tested in a competitive binding assay. Human Apo(a) protein containing 17 Kringle repeats is affinity purified from conditioned media of transiently transfected HEK-293F cells. All reagents are prepared in assay buffer containing 50 mM Tris-HCl pH 7.4, 0.1% BSA. The binding assay is conducted by adding to each well of a clear-bottom plate […] of (1) test compound in dilution series (final concentration […]), (2) Apo(a) protein (6 ng/well), (3) re-suspended Wheat Germ Agglutinin Polyvinyltoluene SPA beads (20 mg/ml), and (4) the radioligand, tritium-labeled (2S)-3-[3-[2-oxo-3-[3-(tritritiomethoxy)phenyl]imidazolidin-1-yl]phenyl]-2-[(3R)-pyrrolidin-3-yl]propanoic acid; hydrochloride (final concentration 0.52 nM). Plates are incubated for 60 minutes at RT and counted on TRILUX LSC. […] Data are analyzed by fitting to a standard single site binding model and the IC50 for the Example test compound is determined. […] Inhibition of the assembly of the LDL particle with apo(a) through binding to the Apo(a) protein supports a reduction in Lp(a) levels.

Where [2] appears, read: 30 mg/kg oral twice a day, day 3 at 4 h post morning dose.

assembly of Lp(a) from Apo(a) and the LDL particle, sequence (P08519 20-2040 limits assumed): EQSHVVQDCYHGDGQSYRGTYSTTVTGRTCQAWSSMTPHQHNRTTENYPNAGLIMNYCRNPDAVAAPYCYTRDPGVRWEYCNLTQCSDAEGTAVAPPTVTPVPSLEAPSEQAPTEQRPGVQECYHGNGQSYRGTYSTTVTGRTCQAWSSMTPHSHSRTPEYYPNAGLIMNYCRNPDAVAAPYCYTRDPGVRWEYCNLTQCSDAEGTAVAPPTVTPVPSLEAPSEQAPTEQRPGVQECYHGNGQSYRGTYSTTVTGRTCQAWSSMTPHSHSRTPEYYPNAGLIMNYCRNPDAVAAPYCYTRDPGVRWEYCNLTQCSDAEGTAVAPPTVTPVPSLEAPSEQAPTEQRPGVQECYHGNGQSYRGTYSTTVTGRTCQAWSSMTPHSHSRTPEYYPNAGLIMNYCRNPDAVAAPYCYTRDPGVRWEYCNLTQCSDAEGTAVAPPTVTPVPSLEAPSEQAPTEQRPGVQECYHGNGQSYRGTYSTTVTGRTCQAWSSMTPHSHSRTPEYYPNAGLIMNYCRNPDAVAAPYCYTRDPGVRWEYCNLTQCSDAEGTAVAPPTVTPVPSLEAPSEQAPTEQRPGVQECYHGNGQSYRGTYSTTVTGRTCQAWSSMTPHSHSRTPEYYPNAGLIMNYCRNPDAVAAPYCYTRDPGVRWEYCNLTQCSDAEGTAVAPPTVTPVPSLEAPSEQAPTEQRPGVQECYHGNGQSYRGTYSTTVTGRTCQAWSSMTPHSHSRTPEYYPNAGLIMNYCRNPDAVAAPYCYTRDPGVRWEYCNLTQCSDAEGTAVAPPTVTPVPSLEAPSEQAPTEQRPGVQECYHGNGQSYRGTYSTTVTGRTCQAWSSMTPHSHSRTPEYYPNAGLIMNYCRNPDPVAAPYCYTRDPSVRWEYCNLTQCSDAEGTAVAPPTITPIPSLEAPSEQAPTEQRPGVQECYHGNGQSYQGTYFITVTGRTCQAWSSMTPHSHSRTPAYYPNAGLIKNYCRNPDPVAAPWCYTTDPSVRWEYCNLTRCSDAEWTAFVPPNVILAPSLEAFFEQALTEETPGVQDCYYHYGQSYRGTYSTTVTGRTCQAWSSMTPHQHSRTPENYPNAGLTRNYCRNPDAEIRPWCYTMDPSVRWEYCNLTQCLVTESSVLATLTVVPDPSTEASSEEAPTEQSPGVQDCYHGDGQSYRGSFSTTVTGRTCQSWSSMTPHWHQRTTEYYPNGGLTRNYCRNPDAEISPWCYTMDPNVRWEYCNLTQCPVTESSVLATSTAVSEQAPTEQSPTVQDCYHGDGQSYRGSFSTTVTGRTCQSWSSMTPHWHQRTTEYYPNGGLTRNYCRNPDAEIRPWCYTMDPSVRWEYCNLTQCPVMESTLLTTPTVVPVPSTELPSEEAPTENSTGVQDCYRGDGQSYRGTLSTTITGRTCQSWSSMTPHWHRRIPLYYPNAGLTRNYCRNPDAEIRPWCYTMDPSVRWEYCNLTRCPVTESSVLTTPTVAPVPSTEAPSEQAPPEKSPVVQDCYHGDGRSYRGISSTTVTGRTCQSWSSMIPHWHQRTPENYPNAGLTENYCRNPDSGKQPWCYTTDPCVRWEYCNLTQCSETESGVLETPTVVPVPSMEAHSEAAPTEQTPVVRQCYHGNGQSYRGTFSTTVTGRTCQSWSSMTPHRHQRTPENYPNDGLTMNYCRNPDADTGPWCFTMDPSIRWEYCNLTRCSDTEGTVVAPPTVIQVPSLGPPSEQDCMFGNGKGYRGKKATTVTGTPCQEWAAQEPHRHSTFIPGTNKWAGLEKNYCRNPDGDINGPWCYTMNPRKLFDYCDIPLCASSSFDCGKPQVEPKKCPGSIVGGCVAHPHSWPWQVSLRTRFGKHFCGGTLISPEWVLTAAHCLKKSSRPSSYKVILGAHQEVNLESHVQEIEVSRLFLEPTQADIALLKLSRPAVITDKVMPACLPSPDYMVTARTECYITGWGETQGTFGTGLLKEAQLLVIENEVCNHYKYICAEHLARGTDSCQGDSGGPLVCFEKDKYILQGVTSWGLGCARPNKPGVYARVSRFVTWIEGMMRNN
human Apo(a) protein, sequence (P08519 20-2040 limits assumed): as above

Compound `O=C(O)[C@@H](Cc1cccc(CNc2cccc(C[C@H](C(=O)O)[C@H]3CCNC3)c2)c1)[C@H]1CCNC1` [Example 13, (2S)-3-[3-[[3-[(2S)-2-Carboxy-2-[(3R)-pyrrolidin-3-yl]ethyl]anilino]methyl]phenyl]-2-[(3R)-pyrrolidin-3-yl]propanoicacid; trihydrochloride] came in with an IC50 in test [1] of 2.39 ± 0.61 nM.
With `O=C(O)[C@@H](Cc1cccc(COc2cccc(C[C@H](C(=O)O)[C@H]3CCNC3)c2)c1)[C@H]1CCNC1` [Example 9, (2S)-3-[3-[[3-[(2S)-2-Carboxy-2-[(3R)-pyrrolidin-3-yl]ethyl]phenoxy]methyl]phenyl]-2-[(3R)-pyrrolidin-3-yl]propanoic acid; dihydrochloride], the “Lp(a) inhibition (%)” value in the test on plasma Lp(a) (setting [2]) was 56.5 ± 2.77%. Moreover, in test [1], the IC50 was determined as 0.359 ± 0.0292 nM.
For `O=C(O)[C@@H](Cc1cccc(Sc2cccc(C[C@H](C(=O)O)[C@H]3CCNC3)c2)c1)[C@H]1CCNC1` [Example 10, (2S)-3-[3-[3-[(2S)-2-Carboxy-2-[(3R)-pyrrolidin-3-yl]ethyl]phenyl]sulfanylphenyl]-2-[(3R)-pyrrolidin-3-yl]propanoic acid; dihydrochloride], the “Lp(a) inhibition (%)” value in the test with plasma Lp(a) (setting [2]) is given as 43.6 ± 4.6%. Besides, the concentration for half-maximal inhibition (IC50) in test [1] came to 0.36 ± 0.119 nM.
For the compound `Cl.O=C(O)[C@H](Cc1ccccc1)[C@@H]1CCNC1` [Example 18, (2R)-3-Phenyl-2-[(3S)-pyrrolidin-3-yl]propanoic acid; hydrochloride], in the test with plasma Lp(a), the “Lp(a) inhibition (% at 30 mpk)” value came to 68 ± 1.82% and the median effective dose (ED50) is 7.6 ± 2.43 mg/kg.
For `O=C(O)[C@@H](Cc1cccc(CNCc2cccc(C[C@H](C(=O)O)[C@H]3CCNC3)c2)c1)[C@H]1CCNC1` [Example 3, (2S)-3-[3-[[[3-[(2S)-2-Carboxy-2-[(3R)-pyrrolidin-3-yl]ethyl]phenyl]methylamino]methyl]phenyl]-2-[(3R)-pyrrolidin-3-yl]propanoic acid; trihydrochloride], the half-inhibitory concentration (IC50) on human Apo(a) protein came to 2.13 ± 0.159 nM; in test [1], 0.934 ± 0.306 nM.
`O=C(O)[C@@H](Cc1cccc(NS(=O)(=O)Nc2cccc(C[C@H](C(=O)O)[C@H]3CCNC3)c2)c1)[C@H]1CCNC1` [Example 16, (2S,2′S)-3,3′-[Sulfonylbis(azanediyl-3,1-phenylene)]bis{2-[(3R)-pyrrolidin-3-yl]propanoic acid}; dihydrochloride] displayed an IC50 in test [1] of 0.563 ± 0.119 nM.
As for `O=C(O)[C@@H](Cc1cccc(Oc2cccc(C[C@H](C(=O)O)[C@H]3CCNC3)c2)c1)[C@H]1CCNC1` [Example 7, (2S)-3-[3-[3-[(2S)-2-carboxy-2-[(3R)-pyrrolidin-3-yl]ethyl]phenoxy]phenyl]-2-[(3R)-pyrrolidin-3-yl]propanoicacid; dihydrochloride], the “Lp(a) inhibition (%)” value in the test on plasma Lp(a) (30 mg/kg subcutaneous dosing twice a day, day 3 at 4 h post morning dose) amounted to 44.6 ± 5.0%. Besides, the concentration for half-maximal inhibition (IC50) in test [1] was determined as 0.372 ± 0.0464 nM.
For `O=C(O)[C@@H](Cc1cccc(S(=O)(=O)c2cccc(C[C@H](C(=O)O)[C@H]3CCNC3)c2)c1)[C@H]1CCNC1` [Example 12, (2S)-3-[3-[3-[(2S)-2-Carboxy-2-[(3R)-pyrrolidin-3-yl]ethyl]phenyl]sulfonylphenyl]-2-[(3R)-pyrrolidin-3-yl]propanoicacid; dihydrochloride], the “Lp(a) inhibition (%)” value with plasma Lp(a) (30 mg/kg oral twice a day, day 3, samples taken at 8 h post oral dosing) was 50 ± 3.82^3%. In test [1], the IC50 worked out at 0.235 ± 0.0509 nM.
Compound `O=C(O)[C@@H](Cc1cccc([S+]([O-])c2cccc(C[C@H](C(=O)O)[C@H]3CCNC3)c2)c1)[C@H]1CCNC1` [Example 11, (2S)-3-[3-[3-[(2S)-2-Carboxy-2-[(3R)-pyrrolidin-3-yl]ethyl]phenyl]sulfinylphenyl]-2-[(3R)-pyrrolidin-3-yl]propanoic acid; dihydrochloride] came in with a half-inhibitory concentration (IC50) in test [1] of 0.396 ± 0.241 nM.
Turning to `Cl.O=C(O)[C@@H](Cc1ccccc1)[C@H]1CCNC1` [Example 17, (2S)-3-Phenyl-2-[(3R)-pyrrolidin-3-yl]propanoic acid; hydrochloride], in the test with plasma Lp(a), the “Lp(a) inhibition (% at 30 mpk)” value was 60 ± 3.46% and the ED50 came out at 20.6 ± 1.79 mg/kg.
Take `O=C(O)[C@@H](Cc1cccc(Nc2cccc(C[C@H](C(=O)O)[C@H]3CCNC3)c2)c1)[C@H]1CCNC1` [Example 14, (2S)-3-[3-[3-[(2S)-2-Carboxy-2-[(3R)-pyrrolidin-3-yl]ethyl]anilino]phenyl]-2-[(3R)-pyrrolidin-3-yl]propanoic acid; dihydrochloride]: in the test on plasma Lp(a), the “Lp(a) inhibition (% at 30 mpk)” value was 72 ± 2.23% and the ED50 is reported as 14.6 ± 2.48 mg/kg. On human Apo(a) protein, this compound came in with an IC50 below 0.314 nM. Also, the IC50 in test [1] came out at 0.348 ± 0.0984 nM.
With `CN1CC[C@H]([C@H](Cc2cccc(Nc3cccc(C[C@H](C(=O)O)[C@H]4CCN(C)C4)c3)c2)C(=O)O)C1` [Example 15, (2S)-3-[3-[3-[(2S)-2-carboxy-2-[(3R)-1-methylpyrrolidin-3-yl]ethyl]anilino]phenyl]-2-[(3R)-1-methylpyrrolidin-3-yl]propanoic acid; dihydrochloride], the IC50 in test [1] came out at 54.6 ± 9.15 nM.
As for `CC(Cc1cccc(CN(Cc2cccc(CC(C)(C(=O)O)[C@H]3CCNC3)c2)Cc2cccc(CC(C)(C(=O)O)[C@H]3CCNC3)c2)c1)(C(=O)O)[C@H]1CCNC1` (stereo partly drawn) [Example 6, 3-[3-[[bis[[3-[2-carboxy-2-[(3R)-pyrrolidin-3-yl]propyl]phenyl]methyl]amino]methyl]phenyl]-2-methyl-2-[(3R)-pyrrolidin-3-yl]propanoic acid; tetrahydrochloride], the half-maximal inhibitory concentration (IC50) at human Apo(a) protein was below 0.314 nM; in test [1] it was 0.108 ± 0.0149 nM.
Regarding `O=C(O)[C@@H](Cc1cccc(OCCOc2cccc(C[C@H](C(=O)O)[C@H]3CCNC3)c2)c1)[C@H]1CCNC1` [Example 8, (2S)-3-[3-[2-[3-[(2S)-2-carboxy-2-[(3R)-pyrrolidin-3-yl]ethyl]phenoxy]ethoxy]phenyl]-2-[(3R)-pyrrolidin-3-yl]propanoic acid; dihydrochloride], in test [1], the midpoint of inhibition, the IC50, lay at 0.288 ± 0.19 nM.
With `COc1cc(F)cc(CN(Cc2cccc(C[C@H](C(=O)O)[C@H]3CCNC3)c2)Cc2cccc(C[C@H](C(=O)O)[C@H]3CCNC3)c2)c1` [Example 5, (2S)-3-[3-[[[3-[(2S)-2-Carboxy-2-[(3R)-pyrrolidin-3-yl]ethyl]phenyl]methyl-[(3-fluoro-5-methoxy-phenyl)methyl]amino]methyl]phenyl]-2-[(3R)-pyrrolidin-3-yl]propanoic acid; trihydrochloride], in the test with plasma Lp(a) (3 mg/kg oral twice a day, day 3 at 4 h post morning dose), the “Lp(a) inhibition (%)” value turned out to be 43.8 ± 4.24%. In test [1], this compound showed an IC50 of 0.17 ± 0.0124 nM.
For the compound `O=C(O)[C@@H](Cc1cccc(CN(Cc2cccc(C[C@H](C(=O)O)[C@H]3CCNC3)c2)Cc2cccc(C[C@H](C(=O)O)[C@H]3CCNC3)c2)c1)[C@H]1CCNC1` [Example 1, (2S)-3-[3-[[Bis[[3-[(2S)-2-carboxy-2-[(3R)-pyrrolidin-3-yl]ethyl]phenyl]methyl]amino]methyl]phenyl]-2-[(3R)-pyrrolidin-3-yl]propanoic acid; tetrahydrochloride], in the test with plasma Lp(a), the “Lp(a) inhibition (% at 30 mpk)” value was found to be 91 ± 0.73% and the ED50 was 3.3 ± 0.53 mg/kg. Besides, the IC50 at human Apo(a) protein is below 0.314 nM. The 50% inhibitory concentration (IC50) in test [1] is 0.0963 ± 0.0233 nM.
